According to patent publication US12448395B2 (BRISTOL-MYERS SQUIBB COMPANY, priority 2019, dated 2025):

Each compound was assayed against T1, human TLR9 (Homo sapiens, UniProt Q9NR96) (assay: TLR9 inhibition reporter assay (HEK-Blue SEAP, ODN2006 stimulation)). Details: HEK-Blue cells overexpressing human TLR9, ODN2006 5 nM.
T1 sequence (Q9NR96 26-1032): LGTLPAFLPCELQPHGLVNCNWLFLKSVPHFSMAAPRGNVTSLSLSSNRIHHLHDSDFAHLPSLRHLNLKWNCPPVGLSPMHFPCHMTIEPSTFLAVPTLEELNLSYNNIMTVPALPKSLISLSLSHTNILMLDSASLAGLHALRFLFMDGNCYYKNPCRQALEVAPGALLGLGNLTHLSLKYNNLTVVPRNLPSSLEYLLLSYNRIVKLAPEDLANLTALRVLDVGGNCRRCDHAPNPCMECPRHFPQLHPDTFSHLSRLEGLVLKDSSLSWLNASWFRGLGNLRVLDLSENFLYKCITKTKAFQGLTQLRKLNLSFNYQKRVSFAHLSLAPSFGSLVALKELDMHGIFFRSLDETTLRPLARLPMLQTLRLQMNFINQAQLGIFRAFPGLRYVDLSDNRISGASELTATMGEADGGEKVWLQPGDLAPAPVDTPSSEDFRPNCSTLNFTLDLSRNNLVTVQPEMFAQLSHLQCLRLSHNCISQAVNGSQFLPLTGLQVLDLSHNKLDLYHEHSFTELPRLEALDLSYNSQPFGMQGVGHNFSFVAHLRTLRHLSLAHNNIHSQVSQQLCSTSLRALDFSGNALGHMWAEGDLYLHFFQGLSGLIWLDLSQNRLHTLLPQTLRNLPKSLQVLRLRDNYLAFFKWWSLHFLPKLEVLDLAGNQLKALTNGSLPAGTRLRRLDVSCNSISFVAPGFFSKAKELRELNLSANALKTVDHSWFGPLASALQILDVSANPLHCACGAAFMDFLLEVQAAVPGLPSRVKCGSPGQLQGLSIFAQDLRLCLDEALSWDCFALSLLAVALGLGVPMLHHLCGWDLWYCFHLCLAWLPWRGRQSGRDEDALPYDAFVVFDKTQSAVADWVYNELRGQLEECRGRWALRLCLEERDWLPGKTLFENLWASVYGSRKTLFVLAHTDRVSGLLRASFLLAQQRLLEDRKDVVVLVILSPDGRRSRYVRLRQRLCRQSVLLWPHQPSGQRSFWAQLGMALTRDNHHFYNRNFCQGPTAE
Type: cell-based
Method: TLR7/8/9 Inhibition Reporter Assays
HEK-Blue™-cells (Invivogen) overexpressing human TLR7, TLR8 or TLR9 receptors were used for screening inhibitors of these receptors using an inducible SEAP (secreted embryonic alkaline phosphatase) reporter gene under the control of the IFN-β minimal promoter fused to five NF-κB and AP-1-binding sites. Briefly, cells are seeded into Greiner 384 well plates (15000 cells per well for TLR7, 20,000 for TLR8 and 25,000 for TLR9) and then treated with test compounds in DMSO to yield a final dose response concentration range of 0.05 nM-50 μM. After a 30 minute compound pre-treatment at room temperature, the cells are then stimulated with a TLR7 ligand (gardiquimod at a final concentration of 7.5 μM), TLR8 ligand (R848 at a final concentration of 15.9 μM) or TLR9 ligand (ODN2006 at a final concentration of 5 nM) to activate NF-κB and AP-1 which induce the production of SEAP. After a 22 hour incubation at 37° C., 5% CO2, SEAP levels are determined with the addition of HEK-Blue™ Detection reagent (Invivogen), a cell culture medium that allows for detection of SEAP, according to manufacturer's specifications. The percent inhibition is determined as the % reduction in the HEK-Blue signal present in wells treated with agonist plus DMSO alone compared to wells treated with a known inhibitor.

IC50, > 50 µM:
CC(C)c1c(-c2cn(C)c3ncccc23)[nH]c2sc(C3CCN(CC(N)=O)CC3)nc12 [Example 31, 2-(4-(6-isopropyl-5-(1-methyl-1H-pyrrolo[2,3-b]pyridin-3-yl)-4H-pyrrolo[3,2-d]thiazol-2-yl)piperidin-1-yl) acetamide]
CC(C)c1c(-c2cn(C)c3ncccc23)[nH]c2sc(C3CCN(C(=O)CN(C)C)CC3)nc12 [Example 32, 2-(dimethylamino)-1-(4-(6-isopropyl-5-(1-methyl-1H-pyrrolo[2,3-b]pyridin-3-yl)-4H-pyrrolo[3,2-d]thiazol-2-yl)piperidin-1-yl)ethan-1-one]
CC(C)c1c(-c2cn(C)c3ncccc23)[nH]c2sc(C3CCN(CCS(C)(=O)=O)CC3)nc12 [Example 33, 6-isopropyl-5-(1-methyl-1H-pyrrolo[2,3-b]pyridin-3-yl)-2-(1-(2-(methylsulfonyl)ethyl)piperidin-4-yl)-4H-pyrrolo[3,2-d]thiazole]
CC(C)c1c(-c2cn(C)c3ncccc23)[nH]c2sc(C3CCN(C4COC4)CC3)nc12 [Example 34, 6-isopropyl-5-(1-methyl-1H-pyrrolo[2,3-b]pyridin-3-yl)-2-(1-(oxetan-3-yl)piperidin-4-yl)-4H-pyrrolo[3,2-d]thiazole]
Cc1c(-c2[nH]c3sc(C4CCN(C5COC5)CC4)nc3c2C(C)C)cn2ncnc2c1C [Example 43, 5-(7,8-dimethyl-[1,2,4]triazolo[1,5-a]pyridin-6-yl)-6-isopropyl-2-(1-(oxetan-3-yl)piperidin-4-yl)-4H-pyrrolo[3,2-d]thiazole]
Cc1c(-c2[nH]c3sc(C4CCN(CCS(C)(=O)=O)CC4)nc3c2C(C)C)cn2ncnc2c1C [Example 55, 5-(7,8-dimethyl-[1,2,4]triazolo[1,5-a]pyridin-6-yl)-6-isopropyl-2-(1-(2-(methylsulfonyl)ethyl)piperidin-4-yl)-4H-pyrrolo[3,2-d]thiazole]
CC(=O)N1CCC(c2nc3c(C(C)C)c(-c4cn5ncnc5c(C)c4C)[nH]c3s2)CC1 [Example 59, 1-(4-(5-(7,8-dimethyl-[1,2,4]triazolo[1,5-a]pyridin-6-yl)-6-isopropyl-4H-pyrrolo[3,2-d]thiazol-2-yl)piperidin-1-yl)ethan-1-one]
Cc1c(-c2[nH]c3sc(C4CCN(C5COC5)CC4)nc3c2C(C)C)cn(C)c(=O)c1C [Example 60, 5-(6-isopropyl-2-(1-(oxetan-3-yl)piperidin-4-yl)-4H-pyrrolo[3,2-d]thiazol-5-yl)-1,3,4-trimethylpyridin-2 (1H)-one]
Cc1c(-c2[nH]c3sc(C4CCN(CCS(C)(=O)=O)CC4)nc3c2C(C)C)cn(C)c(=O)c1C [Example 61, 5-(6-isopropyl-2-(1-(2-(methylsulfonyl)ethyl)piperidin-4-yl)-4H-pyrrolo[3,2-d]thiazol-5-yl)-1,3,4-trimethylpyridin-2 (1H)-one]
Cc1c(-c2[nH]c3sc(C4CCN(CC(=O)N(C)C)CC4)nc3c2C(C)C)cn(C)c(=O)c1C [Example 62, 2-(4-(6-isopropyl-5-(1,4,5-trimethyl-6-oxo-1,6-dihydropyridin-3-yl)-4H-pyrrolo[3,2-d]thiazol-2-yl)piperidin-1-yl)-N,N-dimethylacetamide]
CNC(=O)CN1CCC(c2nc3c(C(C)C)c(-c4cn(C)c(=O)c(C)c4C)[nH]c3s2)CC1 [Example 63, 2-(4-(6-isopropyl-5-(1,4,5-trimethyl-6-oxo-1,6-dihydropyridin-3-yl)-4H-pyrrolo[3,2-d]thiazol-2-yl)piperidin-1-yl)-N-methylacetamide]
Cc1c(-c2[nH]c3sc(C4CCN(CC(N)=O)CC4)nc3c2C(C)C)cn(C)c(=O)c1C [Example 64, 2-(4-(6-isopropyl-5-(1,4,5-trimethyl-6-oxo-1,6-dihydropyridin-3-yl)-4H-pyrrolo[3,2-d]thiazol-2-yl)piperidin-1-yl)acetamide]
Cc1c(-c2[nH]c3sc(N4CCN(CCS(C)(=O)=O)CC4)nc3c2C(C)C)cn2ncnc2c1C [Example 282, 5-(7,8-dimethyl-[1,2,4]triazolo[1,5-a]pyridin-6-yl)-6-isopropyl-2-(4-(2-(methylsulfonyl)ethyl)piperazin-1-yl)-4H-pyrrolo[3,2-d]thiazole]
Cc1c(-c2[nH]c3sc(N4CCN(CC(=O)N(C)C)CC4)nc3c2C(C)C)cn2ncnc2c1C [Example 283, 2-(4-(5-(7,8-dimethyl-[1,2,4]triazolo[1,5-a]pyridin-6-yl)-6-isopropyl-4H-pyrrolo[3,2-d]thiazol-2-yl)piperazin-1-yl)-N,N-dimethylacetamide]
CNC(=O)CN1CCN(c2nc3c(C(C)C)c(-c4cn5ncnc5c(C)c4C)[nH]c3s2)CC1 [Example 284, 2-(4-(5-(7,8-dimethyl-[1,2,4]triazolo[1,5-a]pyridin-6-yl)-6-isopropyl-4H-pyrrolo[3,2-d]thiazol-2-yl)piperazin-1-yl)-N-methylacetamide]
Cc1c(-c2[nH]c3sc(N4CCN(CC(N)=O)CC4)nc3c2C(C)C)cn2ncnc2c1C [Example 285, 2-(4-(5-(7,8-dimethyl-[1,2,4]triazolo[1,5-a]pyridin-6-yl)-6-isopropyl-4H-pyrrolo[3,2-d]thiazol-2-yl)piperazin-1-yl)acetamide]
Cc1c(-c2[nH]c3sc(N4CCN(C5COC5)CC4)nc3c2C(C)C)cn2ncnc2c1C [Example 286, 5-(7,8-dimethyl-[1,2,4]triazolo[1,5-a]pyridin-6-yl)-6-isopropyl-2-(4-(oxetan-3-yl)piperazin-1-yl)-4H-pyrrolo[3,2-d]thiazole]
Cc1c(-c2[nH]c3sc(N4CC5(C4)CN(C4COC4)C5)nc3c2C(C)C)cn2ncnc2c1C [Example 302, 5-(7,8-dimethyl-[1,2,4]triazolo[1,5-a]pyridin-6-yl)-6-isopropyl-2-(6-(oxetan-3-yl)-2,6-diazaspiro[3.3]heptan-2-yl)-4H-pyrrolo[3,2-d]thiazole]
Cc1c(-c2[nH]c3sc(N4CC5(CN(CCS(C)(=O)=O)C5)C4)nc3c2C(C)C)cn(C)c(=O)c1C [Example 305, 5-(6-isopropyl-2-(6-(2-(methylsulfonyl)ethyl)-2,6-diazaspiro[3.3]heptan-2-yl)-4H-pyrrolo[3,2-d]thiazol-5-yl)-1,3,4-trimethylpyridin-2 (1H)-one]
Cc1c(-c2[nH]c3sc(N4CC5(C4)CN(C4COC4)C5)nc3c2C(C)C)cn(C)c(=O)c1C [Example 306, 5-(6-isopropyl-2-(6-(oxetan-3-yl)-2,6-diazaspiro[3.3]heptan-2-yl)-4H-pyrrolo[3,2-d]thiazol-5-yl)-1,3,4-trimethylpyridin-2 (1H)-one]
Cc1c(-c2[nH]c3sc(N4CC5(CN(CC6CCOCC6)C5)C4)nc3c2C(C)C)cn(C)c(=O)c1C [Example 307, 5-(6-isopropyl-2-(6-((tetrahydro-2H-pyran-4-yl)methyl)-2,6-diazaspiro[3.3]heptan-2-yl)-4H-pyrrolo[3,2-d]thiazol-5-yl)-1,3,4-trimethylpyridin-2 (1H)-one]
Cc1c(-c2[nH]c3sc(N4CCN(CC(=O)N(C)C)C[C@H]4C)nc3c2C(C)C)cn2ncnc2c1C [Example 312, (R)-2-(4-(5-(7,8-dimethyl-[1,2,4]triazolo[1,5-a]pyridin-6-yl)-6-isopropyl-4H-pyrrolo[3,2-d]thiazol-2-yl)-3-methylpiperazin-1-yl)-N,N-dimethylacetamide]
Cc1c(-c2[nH]c3sc(N4CCN(CC(N)=O)C[C@H]4C)nc3c2C(C)C)cn2ncnc2c1C [Example 313, (R)-2-(4-(5-(7,8-dimethyl-[1,2,4]triazolo[1,5-a]pyridin-6-yl)-6-isopropyl-4H-pyrrolo[3,2-d]thiazol-2-yl)-3-methylpiperazin-1-yl)acetamide]
